Reference: ChEMBL document CHEMBL1671622, “Novel mutation in 23S rRNA that confers low-level resistance to clarithromycin in Helicobacter pylori” (2008)
Values after ≈ are worked out from the molar mass of the structure shown.

Assays:
Format in all cases: functional
Helicobacter pylori [1] = experiment: Antimicrobial activity against Helicobacter pylori
Helicobacter pylori [2] = experiment: Antimicrobial activity against Helicobacter pylori TF2
Helicobacter pylori [3] = experiment: Antimicrobial activity against Helicobacter pylori TF4
Helicobacter pylori [4] = experiment: Antimicrobial activity against clarithromycin-susceptible Helicobacter pylori ATCC 700392 transformant harboring 23S rRNA of Helicobacter pylori TS1900
Helicobacter pylori [5] = experiment: Antimicrobial activity against Helicobacter pylori TS1900
Helicobacter pylori [6] = experiment: Antimicrobial activity against Helicobacter pylori TS1776
Helicobacter pylori [7] = experiment: Antimicrobial activity against Helicobacter pylori TF1
Helicobacter pylori [8] = experiment: Antimicrobial activity against compound-resistant Helicobacter pylori harboring 23S rRNA mutant gene
Helicobacter pylori [9] = experiment: Antimicrobial activity against Helicobacter pylori TF3
Helicobacter pylori [10] = experiment: Antimicrobial activity against Helicobacter pylori S1900

In the case of CC[C@H]1OC(=O)[C@H](C)[C@@H](O[C@H]2C[C@@](C)(OC)[C@@H](O)[C@H](C)O2)[C@H](C)[C@@H](O[C@@H]2O[C@H](C)C[C@H](N(C)C)[C@H]2O)[C@](C)(OC)C[C@@H](C)C(=O)[C@H](C)[C@@H](O)[C@]1(C)O [CLARITHROMYCIN], the MIC (Helicobacter pylori [1]) was no less than 0.125 µg/mL, the MIC (Helicobacter pylori [2]) was 0.25 µg/mL (≈ 0.334 µM) and the MIC (Helicobacter pylori [3]) was 1 µg/mL (≈ 1.34 µM). The MIC (Helicobacter pylori [4]) was no more than 0.008 µg/mL, the MIC (Helicobacter pylori [5]) was 1 µg/mL (≈ 1.34 µM) and the MIC (Helicobacter pylori [6]) was 0.5 µg/mL (≈ 0.668 µM). For the same molecule, the MIC (Helicobacter pylori [7]) was 0.5 µg/mL (≈ 0.668 µM), the MIC (Helicobacter pylori [8]) was 2 µg/mL (≈ 2.67 µM) and the MIC (Helicobacter pylori [9]) was 1 µg/mL (≈ 1.34 µM). The MIC (Helicobacter pylori [10]) was 1 µg/mL (≈ 1.34 µM).
